According to ChEMBL document CHEMBL4622953, “Synthesis and biological evaluation of thioadatanserin and its dialkylated products as partial 5-HTR1A agonists and 5-HTR2A antagonists for potential use in depression and anxiety disorders” (Bioorg Med Chem Lett, 2020):
Structures can show the parent of a compound that is named as a salt.

Legend:
Type in all cases: cell-based
[1] = target: T1, 5-hydroxytryptamine receptor 1A (Homo sapiens, UniProt P08908); assay: Partial agonist activity at recombinant human 5-HT1A expressed in CHO-K1 cells by pathhunter beta-arrestin assay
T1 sequence (P08908 whole entry): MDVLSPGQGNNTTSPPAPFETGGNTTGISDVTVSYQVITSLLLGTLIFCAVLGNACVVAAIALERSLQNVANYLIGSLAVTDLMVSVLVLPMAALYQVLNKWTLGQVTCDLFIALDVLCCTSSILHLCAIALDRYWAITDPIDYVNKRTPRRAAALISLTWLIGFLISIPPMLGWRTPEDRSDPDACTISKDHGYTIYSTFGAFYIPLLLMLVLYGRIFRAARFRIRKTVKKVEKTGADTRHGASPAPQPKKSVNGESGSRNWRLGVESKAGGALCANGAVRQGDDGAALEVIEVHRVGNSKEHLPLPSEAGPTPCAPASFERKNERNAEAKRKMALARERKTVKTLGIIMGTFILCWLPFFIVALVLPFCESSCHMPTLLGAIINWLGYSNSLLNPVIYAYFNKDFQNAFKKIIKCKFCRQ

[2] = target: 5-hydroxytryptamine receptor 2A (Homo sapiens, UniProt P28223); assay: Antagonist activity at recombinant human 5-HT2A expressed in human U2OS cells by pathhunter beta-arrestin assay
5-hydroxytryptamine receptor 2A, sequence (P28223 whole entry): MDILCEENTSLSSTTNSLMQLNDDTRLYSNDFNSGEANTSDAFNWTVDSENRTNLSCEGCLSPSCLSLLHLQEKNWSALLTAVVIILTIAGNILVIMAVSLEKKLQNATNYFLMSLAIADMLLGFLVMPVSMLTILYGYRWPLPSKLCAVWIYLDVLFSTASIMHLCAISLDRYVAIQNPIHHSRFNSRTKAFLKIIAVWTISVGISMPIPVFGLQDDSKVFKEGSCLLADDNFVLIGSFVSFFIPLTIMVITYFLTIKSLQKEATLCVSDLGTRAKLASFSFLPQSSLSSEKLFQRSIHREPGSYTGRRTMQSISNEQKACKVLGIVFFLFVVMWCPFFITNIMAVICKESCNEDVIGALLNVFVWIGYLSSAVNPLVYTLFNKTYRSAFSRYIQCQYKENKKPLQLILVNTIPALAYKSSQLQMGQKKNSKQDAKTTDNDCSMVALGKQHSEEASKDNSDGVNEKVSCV

[3] = target: T2, 5-hydroxytryptamine receptor 2C (Homo sapiens, UniProt P28335); assay: Antagonist activity at recombinant human 5-HT2C expressed in human U2OS cells by pathhunter beta-arrestin assay
T2 sequence (P28335 whole entry): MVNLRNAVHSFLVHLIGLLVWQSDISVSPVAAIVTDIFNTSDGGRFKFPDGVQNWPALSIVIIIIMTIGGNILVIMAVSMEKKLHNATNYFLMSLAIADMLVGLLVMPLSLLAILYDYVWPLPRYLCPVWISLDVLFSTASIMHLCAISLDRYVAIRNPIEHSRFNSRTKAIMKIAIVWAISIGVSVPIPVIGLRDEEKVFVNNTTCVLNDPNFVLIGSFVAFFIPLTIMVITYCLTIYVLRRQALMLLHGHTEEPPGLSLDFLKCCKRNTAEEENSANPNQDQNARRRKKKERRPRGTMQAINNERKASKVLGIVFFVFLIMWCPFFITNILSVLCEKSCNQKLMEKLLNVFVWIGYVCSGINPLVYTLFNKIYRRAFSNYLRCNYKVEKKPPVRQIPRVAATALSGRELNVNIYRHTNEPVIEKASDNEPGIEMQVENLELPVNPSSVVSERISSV

| Structure (SMILES) | IC50 [2] [nM] | IC50 [3] [nM] | EC50 [1] [nM] |
| --- | --- | --- | --- |
| O=C(NCCN1CCN(c2ncccn2)CC1)C12CC3CC(CC(C3)C1)C2 [ADATANSERIN HYDROCHLORIDE] | 33.7 | 1260 | 2.1 |
| S=C(NCCN1CCN(c2ncccn2)CC1)C12CC3CC(CC(C3)C1)C2 | 62.3 | > 3330 |  |
| CS/C(=N/CC[N+]1(C)CCN(c2ncccn2)CC1)C12CC3CC(CC(C3)C1)C2 | > 10000 |  | > 10000 |

More lines, main results first:

| IC50 [2] [nM] | IC50 [3] [nM] | Structure (SMILES) | EC50 [1] [nM] |
| --- | --- | --- | --- |
|  | 0.33 | Cc1cc2c(cc1Cl)N(C(=O)Nc1ccc(Oc3cccnc3C)nc1)CC2 [SB-242084] |  |
| > 10000 |  | c1ccc(CS/C(=N/CC[N+]2(Cc3ccccc3)CCN(c3ncccn3)CC2)C23CC4CC(CC(C4)C2)C3)cc1 |  |
